Biological target: BRS peptide (biotinylated peptide consisting of just the BRS of CD3 ε) (Mus musculus, UniProt P22646)
Assay: solid-phase ELISA, biotinylated peptide, streptavidin-HRP
Type: binding
Conditions: PBS, room temperature, data not shown

Kd (20/80 PI(4)P/PC coated on plate)	Kd (20/80 PI(4,5)P2/PC coated on plate)	Substance
~40 nM	–	PI(4)P
–	~40 nM	PI(4,5)P2
